Results published in US20230060873A1, “COMPOUNDS AND METHODS FOR FORMING ION CHANNELS IN BIOLOGICAL MEMBRANES” (Washington University, priority 2021, published 2023).

How the values were obtained:
B. subtilis cells = assay: Lactate dehydrogenase release (resofurin fluorescence), MAcBCE/MAkBCE and controls; format: cell-based, Bacillus subtilis; details: 2 μM, 37° C, potassium lactate/NAD+ solution
Method: A 2 mL liquid culture of transformed B. subtilis cells was grown at 37° C. in LB media supplemented with […] kanamycin, until OD600=0.6. Cells were collected by centrifugation at 2000 rpm over 3 min. The bacterial pellet was washed twice in lactate/NAD^+ solution (95 mM potassium lactate, 10 mM nicotinamide adenine dinucleotide (NAD^+), 10 mM HEPES, pH adjusted to 7.4 with KOH). After the last centrifugation step, the bacteria were resuspended until OD600=1.0 in the lactate/NAD^+ solution, then diluted 100× in the same solution. The working fluorophore solution was a 1 mM of resazurin sodium salt (Alfa Cesar) in water. The experiment was started with 3 mL of lactate/NAD^+ solution in a quartz cuvette, then 3.1 μL of resazurin solution was added (timepoint t1, 50 sec) for a 1 μM final concentration, followed by the addition of 100 μL of the diluted B. subtilis suspension (timepoint t2, 100 sec). After 150 sec (timepoint t3, 250 sec), 10 μL of diaphorase (Worthinton Biochemical Corporation) 10 mg/mL solution was added. The final step involved the addition of 0.62 μL of a 10 mM stock solution of dialkylated diaza lariat ether (LEC10) in TFE (timepoint t4, 400 sec), for a final LEC10 concentration of 2 μM; or 3.1 μL of a 2 mM stock solution of valinomycin in DMSO, for a final valinomycin concentration of 2 μM; or 3.1 μL of a 20 mg/mL stock solution of lysozyme in lactate/NAD^+ solution, for a final lysozyme concentration of 20 μg/mL; or 3.1 μL of 10 mM stock solution of each MAcBCE or MAkBCE compounds in TFE, for final concentrations of 10 μM. Fluorescence intensity was recorded each second using a Horiba Fluoromax 4 spectrometer (λexcitation=550 nm; λemission=583 nm). […] To normalize, the fluorescence intensity was divided by the fluorescence level just before timepoint t4. […]
Experiments were repeated at least three times per condition. To normalize, the fluorescence intensity was divided by the fluorescence level just before timepoint t4.

[1] = Planar lipid bilayer ion channel recordings; format: biochemical
Method: Experiments in planar lipid bilayers were performed via a Nanion Orbit-mini planar bilayer system. The planar membranes were formed by painting a 25 mg/mL solution of lipids in n-nonane over the four 50 μm apertures on the chip. The lipids used were asolectin from soybean (Sigma-Aldrich) or a 3:1 w/w mix of 1-palmitoyl-2-oleoyl-sn-glycero-3-phosphoethanolamine (POPE) and 1-palmitoyl-2-oleoyl-sn-glycero-3-phospho-(1′-rac-glycerol) (POPG) (Avanti Polar lipids). The solutions tested were KCl solution (150 mM KCl, 10 mM HEPES, pH adjusted to 7.4 with KOH), NaCl solution (150 mM NaCl, 10 mM HEPES, pH adjusted to 7.4 with NaOH), and a concentrated KCl solution (500 mM KCl, 10 mM HEPES, pH adjusted to 7.4 with KOH). When the appropriate membrane formed, the voltage was clamped at 100 mV or −100 mV, and a stock solution of gramicidin D (Sigma-Aldrich) in DMSO or LEC10 in TFE were added up to the desired concentration. The tested concentration of gramicidin D was 1 nM and 2, 10, 100 and 200 μM were tested for LEC10. Two different temperatures were tested for each condition: 25 and 37° C. The current was recorded over 10 min for the gramicidin test and up to 1 h for the LEC10 test. The data was analyzed with Clampfit 10.7 software (Axon Instruments).
FIGS. 41 and 42 show the lipid bilayer recordings. Current through the asolectin planar lipid bilayer clamped at 100 mV was recorded in the presence of […] (FIG. 41) and 2 μM LEC10 (FIG. 42). In both cases, the solution was 150 mM KCl, 10 mM HEPES, pH 7.4. […] This lack of unitary channel formation, or even a carrier-like increase of the conductance, precludes an ionophore-like mechanism of ion transport.

Compound: CCCCCCCCCCN1CCOCCOCCN(CCCCCCCCCC)CCOCCOCC1 [LEC10, Didecyl diaza(18-crown-6)]
- resofurin fluorescence (LDH release) (B. subtilis cells): increase in the resofurin fluorescence levels
- ion channel activity ([1]; 2 μM, bilayer clamped at 100 mV, 150 mM KCl, 10 mM HEPES, pH 7.4): no ion channel activity was detected
- ion channel activity ([1]; LEC10 10, 100 and 200 μM, KCl up to 500 mM or NaCl instead of KCl): no indication of ion channel activity
